Settings: rat; liver microsomes; pH 7.4; 15.0 min; 1.0 µM
For `COc1ccccc1CNc1ccc(N2CCCCC2)cc1`, the half-life was 2.19 min.
In the case of `COc1ccc(CN2CCNc3cc(Nc4ccccc4)ncc3C2)cn1`, the half-life is reported as 10 min.
Work on `O=C1CCCC2=C1C(c1[nH]ncc1Cl)N=C(Nc1nc3c(Br)cccc3o1)N2` (stereo not given) yielded a half-life of 3.2 min.
Work on `COc1ccc(-c2ccc3ncc(Nc4ccc(C(N)=O)cc4)n3n2)cc1OC` yielded a half-life greater than 30 min.
In the case of `O=C(O)c1c(Sc2ccccc2)c2cc(Cl)ccc2n1Cc1ccc(Cl)cc1`, the half-life is reported as 26.6 min.
With `Cc1ccc(S(=O)(=O)Nc2ncccc2C(=O)Nc2nc(-c3ccccc3)cs2)cc1` the half-life was 14 min.
`N#Cc1cccc(Nc2ncc(-c3cccc4ccccc34)o2)c1` showed a half-life greater than 30 min.
With `COc1ccc(-c2cc(-c3cccc(NC(C)=O)c3)cn3cncc23)cn1` the half-life was 15.7 min.
Work on `COc1ccc(C(=O)NC2CCCc3c2[nH]c2c(Cl)cccc32)cc1OC` (stereo not given) yielded a half-life of 22.4 min.
`COc1cc(C(=O)NC2CCCc3c2[nH]c2c(Cl)cccc32)cc(OC)c1OC` (stereo not given) gave a half-life of 8.45 min.
`CCOC(=O)Nc1cc(-c2ccc(C)c(NS(C)(=O)=O)c2)nn2c(C)nnc12` gave a half-life greater than 30 min.
`Nc1nc2c(s1)C(c1ccc(F)c(F)c1)CC(=O)N2` (stereo not given) showed a half-life of 29.7 min.
With `O=C(O)c1ccnc(-c2cc(C(=O)NCCc3ccccc3)ccn2)c1` the half-life was greater than 30 min.
In the case of `COc1ccc(Nc2cnc3ccc(-c4ccc(OC)c(OC)c4)nn23)cc1`, the half-life is reported as 6.77 min.
With `C#CCNC(=O)c1nc(-c2ccc([S+](C)(=O)[O-])cc2)c2cnccn12` the half-life was greater than 30 min.
`CCOC(=O)C1CCN(C(=O)C2(NC(=O)Nc3ccccc3Cl)CCC2)CC1` showed a half-life of 1.7 min.
In the case of `NC(=O)C1CCN(c2cc(-c3ccc4c(c3)OCCCO4)ncn2)CC1`, the half-life is reported as greater than 30 min.
Molecule `CC(=O)Nc1cccc(-c2nc(-c3c(C)noc3C)cc3c2cc(-c2ccccc2)n3C)c1` has a half-life greater than 30 min.
For `CCCc1cc(C)[nH]c(=O)c1CNC(=O)c1cc(-c2ccnc(N3CCN(C)CC3)c2)cc2c1cnn2C(C)C`, the half-life was 27.2 min.
`NC(=O)C1CCN(c2nc(-c3ccc(F)cc3)cs2)CC1` gave a half-life of 7.09 min.
For `CC(C)(C)c1ccc(SC2=NS(=O)(=O)c3ccccc32)cc1`, the half-life was 1.74 min.
For `CCOC(=O)c1c(C)c(-c2ccccc2)n(CC(=O)NCc2ccccc2)c1C`, the half-life was 2.28 min.
Work on `Nc1c(-c2ccncc2)cc[nH]c1=O` yielded a half-life greater than 30 min.
`CN([C@@H](Cc1ccc(O[S+](=O)([O-])c2cccc3cnccc23)cc1)C(=O)N1CCN(C(=O)OCc2ccccc2)CC1)[S+](=O)([O-])c1cccc2cnccc12` showed a half-life of 2.7 min.
For `Fc1ccc(-c2csc3ncnc(Sc4nnnn4C4CC4)c23)cc1`, the half-life was 4.2 min.
Molecule `Cn1nnnc1Sc1ncnc2scc(-c3cccc(S(C)(=O)=O)c3)c12` has a half-life greater than 30 min.
Molecule `COc1ccc(NC(=O)c2c(C)c(C(C)=O)c(C)n2C)cc1S(=O)(=O)Nc1ccc(Br)cc1` has a half-life of 5.9 min.
In the case of `Fc1ccc(-c2csc3ncnc(NCc4ccc5c(c4)OCO5)c23)cc1`, the half-life is reported as 19.2 min.
For `Cc1ccc(S(=O)(=O)Nc2cc(F)c(F)cc2C(=O)Nc2nc(-c3ccccc3)cs2)cc1`, the half-life was 4.6 min.
`NC(=O)C1CCN(c2nc(-c3ccc(Br)cc3)cs2)CC1` gave a half-life of 2.06 min.
`CN(C)c1ccccc1-c1csc(N2CCC(C(N)=O)CC2)n1` gave a half-life of 9.95 min.
Molecule `Cc1cccc(C)c1Nc1c(-c2cccs2)nc2ncccn12` has a half-life of 3.72 min.
`Fc1cc(Nc2nc(-c3ccncc3)nc3ccccc23)ccc1N1CCCC1` showed a half-life of 5.8 min.
With `CC(C)N(CCCNC(=O)Nc1ccc(C(C)(C)C)cc1)C[C@H]1O[C@@H](n2ccc3c(N)ncnc32)[C@H](O)[C@@H]1O` the half-life was 2.42 min.
For `O=C(O)c1ccnc2cc(C(OCC3CCC(F)(F)CC3)c3ccccc3Cl)[nH]c12` (stereo not given), the half-life was greater than 30 min.
Work on `COC(C)(C)CCn1nc(Nc2c(C)cccc2C)c2cnc(Nc3ccc(OCCN4CCCC4)c(F)c3)nc21` yielded a half-life of 3.28 min.
In the case of `NC(=O)C1CCN(c2nc(-c3cccc(Cl)c3)cs2)CC1`, the half-life is reported as 1.88 min.
Molecule `Cn1c(=O)c2c(nc(Cl)n2Cc2ccc(Cl)cc2)n(C)c1=O` has a half-life greater than 30 min.
`COc1cccc(CNc2ccc(S(=O)(=O)Nc3cccc(-c4ccccc4)c3)cc2)c1O` gave a half-life of 17 min.
For `Cc1ccc(S(=O)(=O)Nc2cnccc2C(=O)Nc2nc(-c3cnn(C)c3)cs2)cc1`, the half-life was 13 min.
Molecule `Cc1ccccc1C(=O)N1CCc2cc(-c3nc(NC(=O)CC4CCCCC4)sc3C)ccc21` has a half-life of 11 min.
With `O=C(c1ccc2c(c1)ncn2-c1cccc(Cl)c1)N1CCCCC1` the half-life was 5.83 min.
Molecule `CC(C)Oc1cccc(-c2ccnc(N3CCC(C(N)=O)CC3)n2)c1` has a half-life of 11.6 min.
Molecule `CC(C)c1cc(C(C)C)c(CC(=O)NS(=O)(=O)Oc2c(C(C)C)cccc2C(C)C)c(C(C)C)c1` has a half-life of 28.2 min.
With `COc1ccccc1Nc1ccnc(N2CCN(C(=O)c3ccc(C)cc3)CC2)n1` the half-life was 5.68 min.
In the case of `CN(C)c1cccc(-c2ncnc(N3CCC(C(N)=O)CC3)n2)c1`, the half-life is reported as 5.7 min.
Molecule `FC(F)(F)c1cc(-c2ccc(CNc3nc(-c4ccccc4C(F)(F)F)nc4ccsc34)cc2)ccn1` has a half-life of 14.8 min.
In the case of `Fc1ccc(-c2nc(-c3ccncc3)nc3ccccc23)cc1F`, the half-life is reported as 20 min.
For `O=C(Nc1nc(-c2ccccc2)cs1)c1ccncc1NS(=O)(=O)c1ccccc1`, the half-life was 13 min.
Molecule `CCOC(=O)c1ccnc(CNCC(=O)N(CC)CCN(C)C)c1` has a half-life greater than 30 min.
`COC(=O)c1ccc(NC(=O)c2nc3ccccc3n(C)c2=O)cc1` showed a half-life of 2.98 min.
`CCOC(=O)N1CCN(Cc2nc3c(c(=O)n(C)c(=O)n3C)n2Cc2ccc(F)cc2)CC1` gave a half-life of 8.7 min.
With `CCOC(=O)c1[nH]c(C)c(CCC(=O)N2CCN(c3cccc(C)c3C)CC2)c1C` the half-life was 2.27 min.
`Clc1ccccc1-c1nccc(-n2ccnc2)n1` showed a half-life greater than 30 min.
With `O=[S+]([O-])(Nc1nccs1)c1ccc(NCc2cc(Cl)cc(Br)c2O)cc1` the half-life was 12 min.
In the case of `CC1CCc2cc(F)ccc2N1C(=O)CSc1nnc2c(n1)[nH]c1ccccc12` (stereo not given), the half-life is reported as 2.02 min.
Work on `CC(C)(C)c1ccc(C(=O)N2CC(=O)Nc3ccc(F)cc3C2c2ccc(F)cc2)cc1` (stereo not given) yielded a half-life of 8.57 min.
With `O=C(N/N=C/c1ccc(Sc2ccccn2)o1)c1ccncc1` the half-life was greater than 30 min.
Molecule `COc1ccc(OC)c(Nc2c3c(nc4ccccc24)CCC3)c1` has a half-life of 1.5 min.
`O=C(NC1CC1)c1nc(-c2cccnc2)c2ccccn12` showed a half-life of 21.8 min.
Work on `COc1ccc(C(=O)N2CCC3(CC2)CN(c2cccc(-c4ccccc4)c2)C3)cc1` yielded a half-life of 22 min.
With `Cc1ccc(-n2nc3c(=O)n(CCCC(=O)NC(C)c4ccccc4)nc(C)c3c2C)cc1` (stereo not given) the half-life was 2.27 min.
Molecule `Cc1nn(CCc2nc(-c3ccccc3)cs2)c2[nH]c(=O)cc(C(F)(F)F)c12` has a half-life of 10.3 min.
For `Fc1cc(F)cc(Nc2nc(-c3ccncc3)nc3ccccc23)c1`, the half-life was 15 min.
For `Cc1ccc(S(=O)(=O)Nc2cnccc2C(=O)Nc2nc3ccccc3s2)cc1`, the half-life was 4.1 min.
In the case of `Fc1ccc(Oc2nc(-c3ccncc3)nc3ccccc23)cc1F`, the half-life is reported as 15 min.
`Cc1ccc(-c2cc(C(=O)Nc3ncco3)c3ccccc3n2)cc1C` showed a half-life of 5.7 min.
For `COc1ccc(-n2c(C)c(C(C)=O)c3ccccc32)cc1`, the half-life was 2.4 min.
In the case of `O=C(Nc1ccc2oc(-c3ccncc3)nc2c1)c1ccccc1Cl`, the half-life is reported as greater than 30 min.
Work on `CCOc1ccc(-c2cn3c(n2)sc2cc(C(=O)NCCCN(CC)CC)ccc23)cc1` yielded a half-life greater than 30 min.
`CCOC(=O)C1CCN(c2nc(-c3ccc(Br)cc3)cs2)CC1` showed a half-life of 2.19 min.
In the case of `c1ccc(Nc2cc3c(cn2)CN(Cc2cccs2)CCN3)cc1`, the half-life is reported as 1.77 min.
With `CCc1ccc(C2Sc3ccccc3NC3=C2C(=O)c2ccccc23)cc1` (stereo not given) the half-life was 1.81 min.
Molecule `Fc1ccc(Nc2cc(-c3ccccc3)nc(-c3ccncc3)n2)cc1F` has a half-life greater than 30 min.
`CN(c1ncccc1CNc1nc(Nc2ccc3c(c2)CC(=O)N3)ncc1C(F)(F)F)S(C)(=O)=O` gave a half-life greater than 30 min.
`COc1ccc2c3c([nH]c2c1)C1CC2C(CC(O)C(OC)C2CO)CN1CC3` (stereo not given) gave a half-life greater than 30 min.
`COC(=O)Nc1nc2ccc(SC(C)C)cc2[nH]1` showed a half-life of 9.99 min.
Molecule `COc1ccc2c(ccn2CCC(=O)Nc2ccc3c(c2)C(=O)N2CCC[C@H]2C(=O)N3)c1` has a half-life of 9.22 min.
`CCN1C(=O)c2ccccc2S(=O)c2ccc(C(=O)NCc3ccccc3)cc21` (stereo not given) showed a half-life of 8.12 min.
For `Nc1ccc(S(=O)(=O)Nc2cnccc2C(=O)Nc2nc(-c3ccccc3)cs2)cc1`, the half-life was 25 min.
`COc1ccc(NC(=O)C2=C(C)NC(Nc3nc4ccccc4o3)=NC2c2ccccc2Br)cc1` (stereo not given) gave a half-life of 21 min.
`c1ccc(CNc2nc(NCc3ccccc3)c3ccccc3n2)cc1` showed a half-life of 5.2 min.
Work on `O=C(NC1CCN(c2cc(-c3ccc(Cl)cc3)[nH]n2)C1)c1ccccc1` (stereo not given) yielded a half-life greater than 30 min.
In the case of `CCN1C(=O)c2ccccc2S(=O)c2ccc(C(=O)NCc3ccc(OC)cc3)cc21` (stereo not given), the half-life is reported as 7.8 min.
`Cc1cccc(S(=O)(=O)c2cn(Cc3ccccc3)c3cc(N4CCCC(C)C4)c(F)cc3c2=O)c1` (stereo not given) gave a half-life of 2.01 min.
`O=S(=O)(Nc1ccc(-c2cccnc2)c2cccnc12)c1cccc(C(F)(F)F)c1` showed a half-life of 1.25 min.
In the case of `Cc1ccnc(NC(=S)N2CCN(c3ccccc3C(F)(F)F)CC2)c1`, the half-life is reported as 2 min.
For `COCCNC(=O)c1ccc(-c2ncc3cnc(-c4cccc(F)c4)cn23)cc1`, the half-life was greater than 30 min.
Work on `N=c1c2c(n(Cc3ccccc3)c3c1CCC3)CCC2` yielded a half-life of 4.04 min.
`Cn1cc(-c2nc(Nc3ccc(F)c(F)c3)c3ccccc3n2)cn1` showed a half-life of 21 min.
In the case of `O=C(Nc1ccc(Oc2ccnc3[nH]ccc23)c(F)c1)c1cccn(-c2ccc(F)cc2)c1=O`, the half-life is reported as 13.1 min.
With `CCc1ccc(C(=O)Nc2cc(CN3CCN(C)CC3)cc(C(F)(F)F)c2)cc1C#Cc1cnc2ccnn2c1` the half-life was greater than 30 min.
`O=C1CCCC2=C1C(c1ccccc1I)N=C(Nc1nc3ccccc3o1)N2` (stereo not given) gave a half-life of 8.4 min.
`CCOc1ccc(Nc2nc(C)c(NC(=O)c3ccc(C)cc3)c(Nc3ccc(OCC)cc3)n2)cc1` showed a half-life of 8.86 min.
For `CCN(CC)CCNC(=O)C1CCN(c2nn3cc(-c4ccc(F)cc4)nc3s2)CC1`, the half-life was greater than 30 min.
For `CCn1cc(C(=O)O)c(=O)c2cnc(N3CCN(C(=S)Nc4ccccc4)CC3)nc21`, the half-life was greater than 30 min.
`CC(Nc1nc(N2CCN(S(C)(=O)=O)CC2)nc2ccccc12)c1ccccc1` (stereo not given) showed a half-life of 8.03 min.
`O=c1c2c([nH]c3ccc(Br)cc13)CCCC2` showed a half-life of 15.9 min.
In the case of `COc1ccc(CCNC(=O)Cn2c(=O)c3cccn3c3ccc(F)cc32)cc1OC`, the half-life is reported as 1.81 min.
With `CCOc1ccc(CCNC(=O)c2cc3sccc3n2CCN2CCOCC2)cc1OCC` the half-life was 1.6 min.
Molecule `NC(=O)C1CCN(c2nc(-c3cc4ccccc4o3)cs2)CC1` has a half-life of 4.21 min.
`CC(=O)NCc1ccc(-c2csc(Nc3cccc(C)c3)n2)o1` showed a half-life greater than 30 min.
For `NC(=O)C1CCN(c2nc(-c3ccc(N4CCCCC4)nc3)cs2)CC1`, the half-life was 17.2 min.
`N#Cc1ccccc1CSc1nc2ncc(Br)cc2[nH]1` showed a half-life of 6.6 min.
Molecule `Cc1ccccc1C(=O)Nc1nc2c(s1)CC(C(C)(C)C)CC2` (stereo not given) has a half-life of 10.5 min.

Source: PubChem BioAssay AID1508591
